Data taken from the NIST ThermoML archive (doi:10.1021/je060486k).

Assay: cn = amount concentration of the nth substance listed, in mol/dm3
Settings: 298.15 K; for surface tension liquid-gas: Wilhelmy plate method; for kinematic viscosity / mass density / speed of sound: 101 kPa, Liquid; for kinematic viscosity: Capillary tube (Ostwald / Ubbelohde) method

O [water] + CCCCCC[N+](C)(C)C.[Br-]
c2 = 0
Settings | kinematic viscosity [m2/s] | surface tension liquid-gas [mN/m]
– | 8.957e-07 | 72.5

O [water] + CCCCCCCCCC[N+](C)(C)C.[Br-]
c2 = 0
Settings | kinematic viscosity [m2/s] | surface tension liquid-gas [mN/m]
– | 8.956e-07 | 72.5

CCCCCCCC[N+](C)(C)C.[Br-] [octyl trimethyl ammonium bromide] + O
Settings | kinematic viscosity [m2/s] | mass density [kg/m3] | speed of sound [m/s] | surface tension liquid-gas [mN/m]
c1 = 0.02 | 8.99e-07 | 997.62 | 1500.1 | 69.4
c1 = 0.04 | 9.033e-07 | 998.2 | 1503.1 | 63.1
c1 = 0.06 | 9.083e-07 | 998.73 | 1506.3 | 59.5
c1 = 0.08 | 9.14e-07 | 999.23 | 1510 | 54.6
c1 = 0.1 | 9.2e-07 | 999.68 | 1513.1 | 51.1
c1 = 0.12 | 9.276e-07 | 1000.25 | 1516.4 | 48.9
c1 = 0.14 | 9.355e-07 | 1000.79 | 1520.3 | 46.5
c1 = 0.16 | 9.441e-07 | 1001.62 | 1522.7 | 44
c1 = 0.18 | 9.534e-07 | 1001.9 | 1525.8 | 41.7
c1 = 0.2 | 9.636e-07 | 1002.54 | 1529.6 | 39.8
c1 = 0.3 | 1.025e-06 | 1005 | 1540 | 36.4
c1 = 0.4 | 1.103e-06 | 1008.09 | 1546.5 | 35.8
c1 = 0.5 | 1.2e-06 | 1010.5 | 1549.2 | 35.5
c1 = 0.6 | 1.315e-06 | 1013.19 | 1552.2 | 35.4
c1 = 0.8 | 1.598e-06 | 1018.07 | 1557.4 | 35.2
c1 = 1 | 1.953e-06 | 1022.98 | 1562.7 | 35.1

CCCCCCCCCC[N+](C)(C)C.[Br-] [N,N,N-trimethyl-1-decanaminium bromide] + O
Settings | kinematic viscosity [m2/s] | mass density [kg/m3] | speed of sound [m/s] | surface tension liquid-gas [mN/m]
c1 = 0.001 | 8.975e-07 | 997.11 | 1497.3 | 65.4
c1 = 0.005 | 8.99e-07 | 997.25 | 1497.8 | 60.1
c1 = 0.01 | 9.048e-07 | 997.37 | 1498.7 | 57.6
c1 = 0.02 | 9.14e-07 | 997.58 | 1500.8 | 49.7
c1 = 0.03 | 9.224e-07 | 997.85 | 1502.6 | 43.4
c1 = 0.04 | 9.35e-07 | 998.06 | 1504.3 | 38
c1 = 0.05 | 9.449e-07 | 998.33 | 1506.3 | 36.9
c1 = 0.06 | 9.56e-07 | 998.52 | 1508 | 36.1
c1 = 0.07 | 9.642e-07 | 998.79 | 1509.2 | 35.5
c1 = 0.08 | 9.78e-07 | 999 | 1509.7 | 35.2
c1 = 0.1 | 1.002e-06 | 999.37 | 1510.1 | 35.2
c1 = 0.12 | 1.024e-06 | 999.77 | 1510.6 | 35
c1 = 0.15 | 1.062e-06 | 1000.4 | 1511.1 | 35.2
c1 = 0.2 | 1.117e-06 | 1001.22 | 1511.7 | 35
c1 = 0.25 | 1.181e-06 | 1002.09 | 1512.4 | 35.1

O [water] + CCCCCCCC[N+](C)(C)C.[Br-]
c2 = 0
Settings | kinematic viscosity [m2/s] | surface tension liquid-gas [mN/m]
– | 8.957e-07 | 72.5

CCCCCC[N+](C)(C)C.[Br-] [hexyltrimethylammonium bromide] + O
Settings | kinematic viscosity [m2/s] | mass density [kg/m3] | speed of sound [m/s] | surface tension liquid-gas [mN/m]
c1 = 0.1 | 9.149e-07 | 1000.32 | 1510.6 | 51.6
c1 = 0.2 | 9.406e-07 | 1003.85 | 1524.9 | 44.3
c1 = 0.3 | 9.727e-07 | 1006.97 | 1537.3 | 41.1
c1 = 0.4 | 1.011e-06 | 1010.42 | 1550.5 | 38.3
c1 = 0.45 | 1.033e-06 | 1012.06 | 1557.7 | 36.8
c1 = 0.5 | 1.056e-06 | 1013.74 | 1562.9 | 35.8
c1 = 0.6 | 1.108e-06 | 1017.19 | 1575.3 | 34
c1 = 0.7 | 1.166e-06 | 1021.02 | 1588.6 | 32.5
c1 = 0.8 | 1.23e-06 | 1024.21 | 1599.1 | 31.2
c1 = 0.9 | 1.301e-06 | 1027.68 | 1610 | 30.5
c1 = 1 | 1.379e-06 | 1031.33 | 1620.6 | 29.9
c1 = 1.1 | 1.463e-06 | 1034.12 | 1628.1 | 29.5
c1 = 1.3 | 1.65e-06 | 1041.07 | 1644.8 | 29.3
c1 = 1.5 | 1.863e-06 | 1047.62 | 1652.1 | 29.1
c1 = 1.7 | 2.101e-06 | 1054.38 | 1660 | 29.1
c1 = 2 | 2.508e-06 | 1064.23 | 1670.3 | 28.9
